According to publication PMC13266999, “Designing Antibiotics with Inherent Resistance to Efflux as a Strategy to Revive Discovery against Multidrug-Resistant Pathogens” (Journal of Medicinal Chemistry, 2026):
Converted amounts (≈) assume the structure as drawn. Like-named read-outs stand apart in the source and are kept apart here.

Tested on: S. aureus
Test: MIC (microbroth dilution)
Type: cell-based, Staphylococcus aureus
Conditions: for MIC: Staphylococcus aureus
Procedure: All bacteria were maintained on tryptic soy agar (TSA), except Streptococcus spp., which were maintained on Columbia agar plates containing 5% horse blood. […] Bacteria were grown to stationary phase in liquid culture overnight, with shaking at 200 rpm, before being back diluted to the relevant starting concentration for each assay below. MICs were measured by the microbroth dilution method. […] Absorbance at OD600 was read on a CLARIOstar spectrophotometer (BMG Labtech) and the MIC was defined as the minimum concentration of compound where no visible growth was detected. […] MICs were also performed in the presence of the outer membrane permeator, polymyxin b nonapeptide (PMBN) following the same MIC method but with the following variation. The 2-fold dilution series of compound was prepared as above, then 50 μL of PMBN at a final concentration of 30 μg/mL was added to relevant wells, while 50 μL/well of blank media was added to the remaining wells. Bacteria were then added at 50 μL/well for a starting concentration as above. […] The MICs were read and defined as above. All animal procedures were performed by the contract research organization Pharmacology Discovery Services Taiwan in accordance with the Guide for the Care and Use of Laboratory Animals. The procedures were approved by the Institutional Ethics Committee of Pharmacology Discovery Services Taiwan, Ltd. (approval no. AB127662), in compliance with animal welfare legislation in Taiwan.

[1] = ATCC9144, ATCC 9144, read-out: MIC
[2] = NCTC13277, NCTC 13277, read-out: MIC
[3] = NCTC13616, NCTC 13616, read-out: MIC

SMILES	MIC [1] [mg/L]	MIC [2] [mg/L]	MIC [3] [mg/L]	MIC (SA-1199, read-out: MIC) [mg/L]	MIC (SA-1199B (NorA-overexpressing)) [mg/L]	fold potentiation compared to levofloxacin (fluoroquinolone-resistant NCTC 13616 and NCTC 13277)	fold loss of activity compared to 46
C[C@H]1COc2c(N3CCN(Cc4cccc5ccccc45)CC3)c(F)cc3c(=O)c(C(=O)O)cn1c23 [Compound 22, (S)-9-Fluoro-3-methyl-10-(4-(naphthalen-1-ylmethyl)piperazin-1-yl)-7-oxo-2,3-dihydro-7H-[1,4]oxazino[2,3,4-ij]quinoline-6-carboxylic acid]	0.125 to 1 (≈ 0.256 to 2.05 µM)	2 to 4 (≈ 4.1 to 8.2 µM)	4 (≈ 8.2 µM)	0.25 (≈ 0.513 µM)	0.5 (≈ 1.03 µM)		
CCn1cc(C(=O)O)c(=O)c2cc(F)c(N3CCNCC3)nc21 [Compound 3, enoxacin, reference compound]	2 (≈ 6.24 µM)	128 (≈ 400 µM)	> 128				
CCn1cc(C(=O)O)c(=O)c2cc(F)c(N3CCN(Cc4cccc5cccnc45)CC3)cc21 [Compound 28, 1-Ethyl-6-fluoro-4-oxo-7-(4-(quinolin-8-ylmethyl)piperazin-1-yl)-1,4-dihydroquinoline-3-carboxylic acid]	1 (≈ 2.17 µM)	128 (≈ 278 µM)	128 (≈ 278 µM)				
O=C(O)c1cn(C2CC2)c2cc(N3CCN(Cc4ccc5ccccc5c4)CC3)c(F)cc2c1=O [Compound 23, 1-Cyclopropyl-6-fluoro-7-(4-(naphthalen-2-ylmethyl)piperazin-1-yl)-4-oxo-1,4-dihydroquinoline-3-carboxylic acid]	0.125 (≈ 0.265 µM)	2 (≈ 4.24 µM)	2 (≈ 4.24 µM)				
CCn1cc(C(=O)O)c(=O)c2cc(F)c(N3CCN(Cc4cccc5ccccc45)CC3)cc21 [Compound 20, 1-Ethyl-6-fluoro-7-(4-(naphthalen-1-ylmethyl)piperazin-1-yl)-4-oxo-1,4-dihydroquinoline-3-carboxylic acid]	1 (≈ 2.18 µM)	2 (≈ 4.35 µM)	2 (≈ 4.35 µM)				
CCn1cc(C(=O)O)c(=O)c2cc(F)c(N3CCN(Cc4cccc5ccsc45)CC3)cc21 [Compound 38, 7-(4-(Benzo[b]thiophen-7-ylmethyl)piperazin-1-yl)-1-ethyl-6-fluoro-4-oxo-1,4-dihydroquinoline-3-carboxylic acid]	0.25 (≈ 0.537 µM)	2 (≈ 4.3 µM)	2 (≈ 4.3 µM)				
O=C(O)c1cn(C2CC2)c2cc(N3CCN(Cc4cccc5c4CCCC5)CC3)c(F)cc2c1=O [Compound 29, 1-Cyclopropyl-6-fluoro-4-oxo-7-(4-((5,6,7,8-tetrahydronaphthalen-1-yl)methyl)piperazin-1-yl)-1,4-dihydroquinoline-3-carboxylic acid]	0.25 to 1 (≈ 0.526 to 2.1 µM)	1 to 2 (≈ 2.1 to 4.21 µM)	1 (≈ 2.1 µM)	0.5 (≈ 1.05 µM)	0.5 (≈ 1.05 µM)		
O=C(O)c1cn(C2CC2)c2cc(N3CCN(Cc4cccc5ccsc45)CC3)c(F)cc2c1=O [Compound 37, 7-(4-(Benzo[b]thiophen-7-ylmethyl)piperazin-1-yl)-1-cyclopropyl-6-fluoro-4-oxo-1,4-dihydroquinoline-3-carboxylic acid]	< 0.125	2 (≈ 4.19 µM)	2 (≈ 4.19 µM)				
C[C@H]1COc2c(N3CC[C@@H](Nc4ncc(F)cn4)C3)c(F)cc3c(=O)c(C(=O)O)cn1c23 [Compound 47, (S)-9-Fluoro-10-((R)-3-((5-fluoropyrimidin-2-yl)amino)pyrrolidin-1-yl)-3-methyl-7-oxo-2,3-dihydro-7H-[1,4]oxazino[2,3,4-ij]quinoline-6-carboxylic acid]	≤ 0.125	1 (≈ 2.26 µM)	0.5 (≈ 1.13 µM)				
O=C(O)c1cn(C2CC2)c2cc(N3CCN(Cc4ccc(-c5ccccc5)cc4)CC3)c(F)cc2c1=O [Compound 39, 7-(4-([1,1’-Biphenyl]-4-ylmethyl)piperazin-1-yl)-1-cyclopropyl-6-fluoro-4-oxo-1,4-dihydroquinoline-3-carboxylic acid]	1 (≈ 2.01 µM)	2 (≈ 4.02 µM)	2 (≈ 4.02 µM)				
CCn1cc(C(=O)O)c(=O)c2cc(F)c(N3CCN(Cc4ccc(F)c5ccccc45)CC3)cc21 [Compound 36, 1-Ethyl-6-fluoro-7-(4-((4-fluoronaphthalen-1-yl)methyl)piperazin-1-yl)-4-oxo-1,4-dihydroquinoline-3-carboxylic acid]	8 (≈ 16.8 µM)	8 (≈ 16.8 µM)	8 (≈ 16.8 µM)				
CCn1cc(C(=O)O)c(=O)c2cc(F)c(N3CCN(Cc4cccc5c4OCO5)CC3)cc21 [Compound 34, 7-(4-(Benzo[d][1,3]dioxol-4-ylmethyl)piperazin-1-yl)-1-ethyl-6-fluoro-4-oxo-1,4-dihydroquinoline-3-carboxylic acid]	0.5 (≈ 1.1 µM)	> 32	> 32				
C[C@H]1COc2c(N3CC[C@@H](Nc4cnccn4)C3)c(F)cc3c(=O)c(C(=O)O)cn1c23 [Compound 48, (S)-9-Fluoro-3-methyl-7-oxo-10-((R)-3-(pyrazin-2-ylamino)pyrrolidin-1-yl)-2,3-dihydro-7H-[1,4]oxazino[2,3,4-ij]quinoline-6-carboxylic acid]	≤ 0.125	1 (≈ 2.35 µM)	1 (≈ 2.35 µM)	0.03 (≈ 0.0705 µM)	0.125 (≈ 0.294 µM)		
CCn1cc(C(=O)O)c(=O)c2cc(F)c(N3CCN(Cc4cccc5ccccc45)CC3)nc21 [Compound 21, 1-Ethyl-6-fluoro-7-(4-(naphthalen-1-ylmethyl)piperazin-1-yl)-4-oxo-1,4-dihydro-1,8-naphthyridine-3-carboxylic acid]	0.5 to 1 (≈ 1.09 to 2.17 µM)	2 to 4 (≈ 4.34 to 8.69 µM)	2 to 8 (≈ 4.34 to 17.4 µM)				
CCn1cc(C(=O)O)c(=O)c2cc(F)c(N3CCN(Cc4cccc5c4CCCC5)CC3)cc21 [Compound 30, 1-Ethyl-6-fluoro-4-oxo-7-(4-((5,6,7,8-tetrahydronaphthalen-1-yl)methyl)piperazin-1-yl)-1,4-dihydroquinoline-3-carboxylic acid]	1 (≈ 2.16 µM)	2 (≈ 4.31 µM)	2 (≈ 4.31 µM)	0.25 (≈ 0.539 µM)	0.5 (≈ 1.08 µM)		
CCn1cc(C(=O)O)c(=O)c2cc(F)c(N3CCN(Cc4ccccc4)CC3)cc21 [Compound 26, 7-(4-Benzylpiperazin-1-yl)-1-ethyl-6-fluoro-4-oxo-1,4-dihydroquinoline-3-carboxylic acid]	0.25 (≈ 0.611 µM)	16 to 32 (≈ 39.1 to 78.2 µM)	16 (≈ 39.1 µM)				
C[C@H]1COc2c(N3CC[C@H](Nc4ncccn4)C3)c(F)cc3c(=O)c(C(=O)O)cn1c23 [Compound 44, (S)-9-Fluoro-3-methyl-7-oxo-10-((S)-3-(pyrimidin-2-ylamino)pyrrolidin-1-yl)-2,3-dihydro-7H-[1,4]oxazino[2,3,4-ij]quinoline-6-carboxylic acid]	0.25 (≈ 0.588 µM)	8 (≈ 18.8 µM)	8 (≈ 18.8 µM)	0.25 (≈ 0.588 µM)	0.25 (≈ 0.588 µM)	2–4 fold	
CCn1cc(C(=O)O)c(=O)c2cc(F)c(N3CCNCC3)cc21 [Compound 2, norfloxacin, reference compound]	2 (≈ 6.26 µM)	> 128	> 128				
CCn1cc(C(=O)O)c(=O)c2cc(F)c(N3CCN(Cc4ccc(-c5ccccc5)cc4)CC3)cc21 [Compound 40, 7-(4-([1,1’-Biphenyl]-4-ylmethyl)piperazin-1-yl)-1-ethyl-6-fluoro-4-oxo-1,4-dihydroquinoline-3-carboxylic acid]	2 (≈ 4.12 µM)	4 (≈ 8.24 µM)	2 (≈ 4.12 µM)				
CCn1cc(C(=O)O)c(=O)c2cc(F)c(N3CCN(Cc4ccc5ccccc5c4)CC3)cc21 [Compound 24, 1-Ethyl-6-fluoro-7-(4-(naphthalen-2-ylmethyl)piperazin-1-yl)-4-oxo-1,4-dihydroquinoline-3-carboxylic acid]	0.25 (≈ 0.544 µM)	4 (≈ 8.7 µM)	4 (≈ 8.7 µM)				
C[C@H]1COc2c(N3CC[C@@H](N)C3)c(F)cc3c(=O)c(C(=O)O)cn1c23 [Compound 45, (S)-10-((R)-3-Aminopyrrolidin-1-yl)-9-fluoro-3-methyl-7-oxo-2,3-dihydro-7H-[1,4]oxazino[2,3,4-ij]quinoline-6-carboxylic acid]	0.25 (≈ 0.72 µM)	32 (≈ 92.1 µM)	32 (≈ 92.1 µM)				32- to 64 fold
Cc1cc(N[C@@H]2CCN(c3c(F)cc4c(=O)c(C(=O)O)cn5c4c3OC[C@@H]5C)C2)ncn1 [Compound 49, (S)-9-Fluoro-3-methyl-10-((R)-3-((6-methylpyrimidin-4-yl)amino)pyrrolidin-1-yl)-7-oxo-2,3-dihydro-7H-[1,4]oxazino[2,3,4-ij]quinoline-6-carboxylic acid]	0.016 (≈ 0.0364 µM)	0.5 (≈ 1.14 µM)	0.25 (≈ 0.569 µM)	0.016 (≈ 0.0364 µM)	0.016 (≈ 0.0364 µM)		
CN(C)c1ccc(CN2CCN(c3cc4c(cc3F)c(=O)c(C(=O)O)cn4C3CC3)CC2)cc1 [Compound 31, 1-Cyclopropyl-7-(4-(4-(dimethylamino)benzyl)piperazin-1-yl)-6-fluoro-4-oxo-1,4-dihydroquinoline-3-carboxylic acid]	0.06 to 0.125 (≈ 0.129 to 0.269 µM)	16 to 32 (≈ 34.4 to 68.9 µM)	8 to 16 (≈ 17.2 to 34.4 µM)	0.125 (≈ 0.269 µM)	0.25 (≈ 0.538 µM)		
CCn1cc(C(=O)O)c(=O)c2cc(F)c(N3CCN(Cc4ccc(N(C)C)cc4)CC3)cc21 [Compound 32, 7-(4-(4-(Dimethylamino)benzyl)piperazin-1-yl)-1-ethyl-6-fluoro-4-oxo-1,4-dihydroquinoline-3-carboxylic acid]	0.125 to 0.25 (≈ 0.276 to 0.552 µM)	> 32	16 to 32 (≈ 35.4 to 70.7 µM)				
